Laboratory results: patent US20140194473A1, “IMIDAZOLE FUNGICIDES” (E I Du Pont De Nemours And Company, priority 2013, published 2014)

How the values were obtained:
Format in all cases: in vivo
[1] = tested on: Botrytis cinerea; assay: Test A: tomato Botrytis, preventive spray on tomato seedlings; conditions: 40 ppm test suspension sprayed to run-off on tomato seedlings, inoculated the following day; 100 = 100% disease control, 0 = no control; triplicate, averaged
Protocol: (§1) General protocol for preparing test suspensions for Tests A-G: the test compounds were first dissolved in acetone in an amount equal to 3% of the final volume and then suspended at the desired concentration (in ppm) in acetone and purified water (50/50 mix by volume) containing 250 ppm of the surfactant Trem® 014 (polyhydric alcohol esters). The resulting test suspensions were then used in Tests A-G. Each test was conducted in triplicate, and the results were averaged. Spraying a 40 ppm test suspension to the point of run-off on the test plants was the equivalent of a rate of about 160 g/ha. Unless otherwise indicated, the rating values indicate a 40 ppm test suspension was used.
The test suspension was sprayed to the point of run-off on tomato seedlings. The following day the seedlings were inoculated with a spore suspension of Botrytis cinerea (the causal agent of tomato Botrytis) and incubated in saturated atmosphere at 20° C. for 48 h, and then moved to a growth chamber at 24° C. for 3 additional days, after which time visual disease ratings were made.
(§2) Results for Tests A-G are given in Table A. In the Table, a rating of 100 indicates 100% disease control and a rating of 0 indicates no disease control (relative to the controls). A hyphen (-) indicates no test results.

[2] = tested on: Alternaria solani; assay: Test B: tomato early blight, preventive spray on tomato seedlings; conditions: 40 ppm test suspension sprayed to run-off on tomato seedlings, inoculated the following day; 100 = 100% disease control, 0 = no control; triplicate, averaged
Protocol: as §1
The test suspension was sprayed to the point of run-off on tomato seedlings. The following day the seedlings were inoculated with a spore suspension of Alternaria solani (the causal agent of tomato early blight) and incubated in a saturated atmosphere at 27° C. for 48 h, and then moved to a growth chamber at 20° C. for 5 days, after which time visual disease ratings were made.
as §2

[3] = tested on: Septoria nodorum; assay: Test C: Septoria glume blotch, preventive spray on wheat seedlings; conditions: 40 ppm test suspension sprayed to run-off on wheat seedlings, inoculated the following day; 100 = 100% disease control, 0 = no control; triplicate, averaged
Protocol: as §1
The test suspension was sprayed to the point of run-off on wheat seedlings. The following day the seedlings were inoculated with a spore suspension of Septoria nodorum (the causal agent of Septoria glume blotch) and incubated in a saturated atmosphere at 24° C. for 48 h, and then moved to a growth chamber at 20° C. for 9 days, after which time visual disease ratings were made.
as §2

[4] = tested on: Septoria tritici; assay: Test D: wheat leaf blotch, preventive spray on wheat seedlings; conditions: 40 ppm test suspension sprayed to run-off on wheat seedlings, inoculated the following day; 100 = 100% disease control, 0 = no control; triplicate, averaged
Protocol: as §1
The test suspension was sprayed to the point of run-off on wheat seedlings. The following day the seedlings were inoculated with a spore suspension of Septoria tritici (the causal agent of wheat leaf blotch) and incubated in saturated atmosphere at 24° C. for 48 h. and then the seedlings were moved to a growth chamber at 20° C. for 19 additional days, after which time visual disease ratings were made.
as §2

[5] = tested on: Puccinia recondite f. sp. tritici; assay: Test F: wheat leaf rust, preventive spray on wheat seedlings; conditions: 40 ppm test suspension sprayed to run-off on wheat seedlings, inoculated the following day; 100 = 100% disease control, 0 = no control; triplicate, averaged
Protocol: as §1
The test suspension was sprayed to the point of run-off on wheat seedlings. The following day the seedlings were inoculated with a spore suspension of Puccinia recondite f. sp. tritici (the causal agent of wheat leaf rust) and incubated in a saturated atmosphere at 20° C. for 24 h, and then moved to a growth chamber at 20° C. for 6 days, after which time visual disease ratings were made.
as §2

[6] = tested on: Blumeria graminis f. sp. tritici; assay: Test G: wheat powdery mildew, preventive spray on wheat seedlings; conditions: 40 ppm test suspension sprayed to run-off on wheat seedlings, inoculated with spore dust the following day; 100 = 100% disease control, 0 = no control; triplicate, averaged
Protocol: as §1
The test suspension was sprayed to the point of run-off on wheat seedlings. The following day the seedlings were inoculated with a spore dust of Blumeria graminis f. sp. tritici (also known as Erysiphe graminis f. sp. tritici, the causal agent of wheat powdery mildew) and incubated in a growth chamber at 20° C. for 8 days, after which time visual disease ratings were made.
as §2

[7] = tested on: Puccinia recondite f. sp. tritici; assay: Test E: wheat leaf rust, spray after inoculation of wheat seedlings; conditions: 40 ppm test suspension sprayed on wheat seedlings after inoculation (24 h incubation, then 2 days in growth chamber); 100 = 100% disease control, 0 = no control; triplicate, averaged
Protocol: as §1
Wheat seedlings were inoculated with a spore suspension of Puccinia recondite f. sp. tritici (the causal agent of wheat leaf rust) and incubated in a saturated atmosphere at 20° C. for 24 h, and then moved to a growth chamber at 20° C. for 2 days. After 2 days, the test suspension was sprayed to the point of run-off on the wheat seedlings, and then the seedlings were moved back to the growth chamber at 20° C. for 4 days. Upon removal, visual disease ratings were made.
as §2

In the case of Cc1ncn(Nc2ccc(F)cc2Cl)c1-c1ccc(F)cc1F [Compound 1, N-(2-chloro-4-fluorophenyl)-5-(2,4-difluorophenyl)-4-methyl-1H-imidazol-1-amine], the “Test A rating (disease control)” value [1] is reported as 100%, the “Test B rating (disease control)” value [2] is reported as 70% and the “Test C rating (disease control)” value [3] is reported as 0%. The “Test D rating (disease control)” value [4] was 92%, the “Test F rating (disease control)” value [5] was 95% and the “Test G rating (disease control)” value [6] was 91%.

For Cc1nc(Br)n(Nc2ccc(F)cc2Cl)c1-c1ccc(F)cc1F [Compound 2, 2-bromo-N-(2-chloro-4-fluorophenyl)-5-(2,4-difluorophenyl)-4-methyl-1H-imidazol-1-amine], the “Test A rating (disease control)” value [1] was 99%, the “Test B rating (disease control)” value [2] was 0% and the “Test C rating (disease control)” value [3] was 60%. The “Test D rating (disease control)” value [4] was 100%, the “Test E rating (disease control)” value [7] was 30% and the “Test F rating (disease control)” value [5] was 99%. For the same compound, the “Test G rating (disease control)” value [6] was 100%.

Cc1ncn(Nc2ccc(Cl)cc2Cl)c1-c1ccc(F)cc1 [Compound 3] was tested, and the “Test B rating (disease control)” value [2] was 0%, the “Test C rating (disease control)” value [3] was 0% and the “Test D rating (disease control)” value [4] was 99%. The “Test E rating (disease control)” value [7] was 0%, the “Test F rating (disease control)” value [5] was 41% and the “Test G rating (disease control)” value [6] was 0%.

In the case of Cc1nc(Br)n(Nc2ccc(Cl)cc2Cl)c1-c1ccc(Cl)cc1 [Compound 5], the “Test B rating (disease control)” value [2] is reported as 0%, the “Test C rating (disease control)” value [3] is reported as 0% and the “Test D rating (disease control)” value [4] is reported as 99%. The “Test E rating (disease control)” value [7] was 0%, the “Test F rating (disease control)” value [5] was 9% and the “Test G rating (disease control)” value [6] was 0%.

In the case of Cc1nc(Br)n(Nc2ccc(Cl)cc2Cl)c1-c1ccc(F)cc1 [Compound 6], the “Test A rating (disease control)” value [1] is reported as 16%, the “Test B rating (disease control)” value [2] is reported as 0% and the “Test C rating (disease control)” value [3] is reported as 0%. The “Test D rating (disease control)” value [4] was 93%, the “Test F rating (disease control)” value [5] was 55% and the “Test G rating (disease control)” value [6] was 0%.

In the case of Cc1ncn(Nc2ccc(Cl)cc2Cl)c1-c1ccc(F)cc1F [Compound 7, 5-(2,4-difluorophenyl)-N-(2,4-dichlorophenyl)-4-methyl-1H-imidazol-1-amine], the “Test A rating (disease control)” value [1] is reported as 100%, the “Test B rating (disease control)” value [2] is reported as 0% and the “Test C rating (disease control)” value [3] is reported as 0%. For the same compound, the “Test D rating (disease control)” value [4] was 100%, the “Test E rating (disease control)” value [7] was 0% and the “Test F rating (disease control)” value [5] was 97%. The “Test G rating (disease control)” value [6] was 91%.

In the case of Cc1nc(Br)n(Nc2c(Cl)cc(Cl)cc2Br)c1-c1ccc(F)cc1F [Compound 8, N-(2-bromo-4,6-dichlorophenyl)-4-methyl-2-bromo-5-(2,4-difluorophenyl)-1H-imidazol-1-amine], the “Test A rating (disease control)” value [1] is reported as 99%, the “Test B rating (disease control)” value [2] is reported as 9% and the “Test C rating (disease control)” value [3] is reported as 0%. The “Test D rating (disease control)” value [4] was 100%, the “Test E rating (disease control)” value [7] was 19% and the “Test F rating (disease control)” value [5] was 100%. The “Test G rating (disease control)” value [6] was 98%.

In the case of Cc1ncn(Nc2ccc(F)cc2F)c1-c1ccc(F)cc1F [Compound 9], the “Test A rating (disease control)” value [1] is reported as 87%, the “Test B rating (disease control)” value [2] is reported as 0% and the “Test C rating (disease control)” value [3] is reported as 0%. The “Test D rating (disease control)” value [4] was 79%, the “Test E rating (disease control)” value [7] was 36% and the “Test F rating (disease control)” value [5] was 14%. For the same compound, the “Test G rating (disease control)” value [6] was 0%.

Cc1nc(Br)n(Nc2ccc(F)cc2F)c1-c1ccc(F)cc1F [Compound 10, 2-bromo-N,5-bis(2,4-difluorophenyl)-4-methyl-1H-imidazol-1-amine] was tested, and the “Test A rating (disease control)” value [1] was 99%, the “Test B rating (disease control)” value [2] was 40% and the “Test C rating (disease control)” value [3] was 0%. For the same compound, the “Test D rating (disease control)” value [4] was 100%, the “Test E rating (disease control)” value [7] was 7% and the “Test F rating (disease control)” value [5] was 100%. The “Test G rating (disease control)” value [6] was 96%.

With Fc1cc(F)c(Nn2c(Cl)nc(Cl)c2-c2ccc(Cl)cc2Cl)c(Cl)c1 [Compound 11, N-(2-chloro-4,6-difluorophenyl)-2,4-dichloro-5-(2,4-dichlorophenyl)-1H-imidazol-1-amine] the “Test A rating (disease control)” value [1] was 0%, the “Test B rating (disease control)” value [2] was 0% and the “Test C rating (disease control)” value [3] was 0%. The “Test D rating (disease control)” value [4] was 0%, the “Test E rating (disease control)” value [7] was 0% and the “Test F rating (disease control)” value [5] was 0%. For the same compound, the “Test G rating (disease control)” value [6] was 52%.

Fc1ccc(-c2c(C(Cl)Cl)nc(Cl)n2Nc2ccc(F)cc2Cl)c(F)c1 [Compound 12] was tested, and the “Test A rating (disease control)” value [1] was 0%, the “Test B rating (disease control)” value [2] was 0% and the “Test C rating (disease control)” value [3] was 0%. For the same compound, the “Test D rating (disease control)” value [4] was 89%, the “Test E rating (disease control)” value [7] was 0% and the “Test F rating (disease control)” value [5] was 86%. For the same compound, the “Test G rating (disease control)” value [6] was 73%.

Fc1ccc(-c2c(CCl)nc(Cl)n2Nc2ccc(F)cc2Cl)c(F)c1 [Compound 13] was tested, and the “Test A rating (disease control)” value [1] was 66%, the “Test B rating (disease control)” value [2] was 0% and the “Test C rating (disease control)” value [3] was 0%. For the same compound, the “Test D rating (disease control)” value [4] was 97%, the “Test E rating (disease control)” value [7] was 0% and the “Test F rating (disease control)” value [5] was 95%. For the same compound, the “Test G rating (disease control)” value [6] was 98%.

With Fc1ccc(Nn2c(Br)nc(Br)c2-c2ccc(Cl)cc2Cl)c(F)c1 [Compound 14] the “Test A rating (disease control)” value [1] was 0%, the “Test B rating (disease control)” value [2] was 0% and the “Test C rating (disease control)” value [3] was 0%. For the same compound, the “Test D rating (disease control)” value [4] was 0%, the “Test E rating (disease control)” value [7] was 0% and the “Test F rating (disease control)” value [5] was 0%. For the same compound, the “Test G rating (disease control)” value [6] was 0%.
